In general, AC50 refers to the concentration at which the activity in the assay is half-maximal. A word on the IC50: it is the midpoint of a concentration-inhibition curve. By CC50 is commonly meant the concentration at which the toxic effect on the cells reaches its halfway point. As a reminder, the EC50 is the concentration at which the effect is half-maximal.

Data set [1] addresses Cytochrome P450 2D6 (Homo sapiens, UniProt P10635).
Data set [2] concerns the target Cytochrome P450 2C19 (Homo sapiens, UniProt P33261). As to the kind of experiment: Cytochrome panel assay with activity outcomes. Panel member name: p450-cyp2c19 Compounds with AC50 equal or less than 10 uM are considered active. The format is functional.
The target of data set [3] is Glyceraldehyde-3-phosphate dehydrogenase (Homo sapiens, UniProt P04406).
Sequence of Glyceraldehyde-3-phosphate dehydrogenase (P04406 whole entry): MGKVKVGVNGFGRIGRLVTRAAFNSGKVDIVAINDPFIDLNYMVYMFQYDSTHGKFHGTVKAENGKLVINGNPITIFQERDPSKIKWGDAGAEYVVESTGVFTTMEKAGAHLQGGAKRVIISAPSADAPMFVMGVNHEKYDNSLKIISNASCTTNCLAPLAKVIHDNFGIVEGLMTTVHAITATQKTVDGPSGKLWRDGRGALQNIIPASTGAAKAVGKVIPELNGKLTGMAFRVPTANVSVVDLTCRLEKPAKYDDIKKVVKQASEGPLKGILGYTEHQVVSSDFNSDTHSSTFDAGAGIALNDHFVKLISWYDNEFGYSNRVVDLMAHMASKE
Data set [4] has as its target Alkaline phosphatase, placental type (Homo sapiens, UniProt P05187). Briefly: PLAP enzyme inhibitors, confirmation, biochemical, luminescence (AID 1512). The format is functional.
Data set [5] concerns the target T1, Alkaline phosphatase, tissue-nonspecific isozyme (Homo sapiens, UniProt P05186).
T1 sequence (P05186 whole entry): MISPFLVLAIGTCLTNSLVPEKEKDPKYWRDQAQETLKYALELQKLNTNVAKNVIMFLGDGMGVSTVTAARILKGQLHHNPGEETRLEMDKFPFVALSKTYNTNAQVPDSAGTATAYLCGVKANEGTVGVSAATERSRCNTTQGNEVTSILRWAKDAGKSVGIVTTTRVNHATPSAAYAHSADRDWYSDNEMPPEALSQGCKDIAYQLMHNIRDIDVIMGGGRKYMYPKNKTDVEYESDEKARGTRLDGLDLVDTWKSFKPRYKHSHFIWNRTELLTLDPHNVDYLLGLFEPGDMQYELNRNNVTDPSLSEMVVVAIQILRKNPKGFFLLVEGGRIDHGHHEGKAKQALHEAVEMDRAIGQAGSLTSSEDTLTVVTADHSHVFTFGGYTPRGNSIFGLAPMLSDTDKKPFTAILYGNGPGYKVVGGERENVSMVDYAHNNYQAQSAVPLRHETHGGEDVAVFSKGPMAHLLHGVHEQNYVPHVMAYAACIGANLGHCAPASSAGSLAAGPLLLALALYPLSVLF
As to the kind of experiment: human TNAP enzyme inhibitors, SAR follow-up, biochemical, luminescent, dose response (AID 1056).

Data set [6] addresses T2, SUMO-activating enzyme (Homo sapiens, UniProt Q9UBT2). As to the kind of experiment: inhibitors of in vitro SUMOylation cascade, primary screen, biochemical, HTRF, uHTS (AID 2006). The data set is classed as protein-complex assay. In general terms: In TR-FRET formats the signal depends on donor and acceptor labels being close together.
Data set [7] addresses T2, SUMO-activating enzyme. Briefly: SUMOylation inhibitor hit validation, confirmation, SUMOylation inhibitor project, biochemical, AlphaScreen (AID 2018). The data set is classed as functional.
Data set [8] has as its target T3, Histone-lysine N-methyltransferase NSD2 (Homo sapiens, UniProt O96028).
T3 sequence (O96028 whole entry): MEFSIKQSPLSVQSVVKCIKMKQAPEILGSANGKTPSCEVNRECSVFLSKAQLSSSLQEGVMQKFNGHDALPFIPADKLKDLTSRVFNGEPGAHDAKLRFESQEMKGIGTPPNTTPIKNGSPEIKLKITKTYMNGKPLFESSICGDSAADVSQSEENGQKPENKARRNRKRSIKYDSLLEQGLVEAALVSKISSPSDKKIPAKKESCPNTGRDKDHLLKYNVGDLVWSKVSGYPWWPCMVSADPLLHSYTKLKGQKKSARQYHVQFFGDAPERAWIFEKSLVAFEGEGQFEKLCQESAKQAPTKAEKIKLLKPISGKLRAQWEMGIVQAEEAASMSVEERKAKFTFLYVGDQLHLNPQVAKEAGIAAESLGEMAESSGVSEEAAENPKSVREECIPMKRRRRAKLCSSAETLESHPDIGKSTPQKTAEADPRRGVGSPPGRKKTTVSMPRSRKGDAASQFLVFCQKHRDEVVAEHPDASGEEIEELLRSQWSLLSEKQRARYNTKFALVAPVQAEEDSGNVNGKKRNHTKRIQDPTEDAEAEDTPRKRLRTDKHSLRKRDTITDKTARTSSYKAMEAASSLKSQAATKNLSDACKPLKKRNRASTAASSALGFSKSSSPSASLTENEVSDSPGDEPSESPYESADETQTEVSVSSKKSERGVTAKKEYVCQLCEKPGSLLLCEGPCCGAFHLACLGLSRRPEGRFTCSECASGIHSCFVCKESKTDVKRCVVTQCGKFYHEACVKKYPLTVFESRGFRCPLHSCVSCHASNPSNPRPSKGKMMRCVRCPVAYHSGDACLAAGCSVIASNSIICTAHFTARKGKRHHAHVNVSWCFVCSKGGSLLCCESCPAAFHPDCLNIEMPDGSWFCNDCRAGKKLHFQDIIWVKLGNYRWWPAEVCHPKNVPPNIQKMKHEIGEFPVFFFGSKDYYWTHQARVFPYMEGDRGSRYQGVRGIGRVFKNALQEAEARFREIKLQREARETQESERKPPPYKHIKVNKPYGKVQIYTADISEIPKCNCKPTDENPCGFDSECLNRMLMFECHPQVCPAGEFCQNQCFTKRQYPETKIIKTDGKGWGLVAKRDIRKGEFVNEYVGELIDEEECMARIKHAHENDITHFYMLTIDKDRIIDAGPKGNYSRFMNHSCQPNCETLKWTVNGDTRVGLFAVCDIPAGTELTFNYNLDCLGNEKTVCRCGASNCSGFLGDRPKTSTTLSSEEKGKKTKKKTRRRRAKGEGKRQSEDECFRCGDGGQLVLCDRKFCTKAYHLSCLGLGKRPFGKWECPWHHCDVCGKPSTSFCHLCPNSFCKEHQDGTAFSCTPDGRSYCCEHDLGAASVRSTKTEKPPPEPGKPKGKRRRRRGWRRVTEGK
The format is biochemical.

Data set [9] addresses T4, Rac GTPase-activating protein 1 (Homo sapiens, UniProt Q9H0H5).
T4 sequence (Q9H0H5 whole entry): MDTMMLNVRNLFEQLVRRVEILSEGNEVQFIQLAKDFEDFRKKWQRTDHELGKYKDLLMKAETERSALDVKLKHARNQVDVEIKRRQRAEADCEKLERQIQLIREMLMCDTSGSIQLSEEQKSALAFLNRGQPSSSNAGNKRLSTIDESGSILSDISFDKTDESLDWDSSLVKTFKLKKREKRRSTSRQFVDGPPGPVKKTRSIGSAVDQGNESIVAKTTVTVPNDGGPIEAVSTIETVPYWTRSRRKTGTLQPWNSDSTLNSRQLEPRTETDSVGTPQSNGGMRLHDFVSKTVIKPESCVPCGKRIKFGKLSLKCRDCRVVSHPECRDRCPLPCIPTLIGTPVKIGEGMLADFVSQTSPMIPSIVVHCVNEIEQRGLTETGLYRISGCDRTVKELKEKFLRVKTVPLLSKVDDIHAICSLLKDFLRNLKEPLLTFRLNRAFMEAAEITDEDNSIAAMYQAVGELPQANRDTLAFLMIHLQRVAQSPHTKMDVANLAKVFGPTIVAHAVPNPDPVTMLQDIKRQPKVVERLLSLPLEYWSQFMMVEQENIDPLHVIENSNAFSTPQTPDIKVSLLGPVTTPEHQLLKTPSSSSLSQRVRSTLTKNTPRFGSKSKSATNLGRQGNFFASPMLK
As to the kind of experiment: MgcRacGAP GTPase-activating activity inhibitors, confirmation, biochemical, ADP Hunter fluorescence, primary and confirmatory (AID 624330). The format is functional.

A short description of data set [10]: cells. The data set is classed as functional.
Data set [11] is described as follows: Vero E6 cell cytotoxicity, dose response, cytotoxicity control for non-replicating M. tuberculosis project, secondary assay (AID 492998). The format is functional, VeroE6. The conditions noted are these: Vero C1008.
Data set [12] deals with Induced myeloid leukemia cell differentiation protein Mcl-1 (Homo sapiens, UniProt Q07820). The format is functional.
Sequence of Induced myeloid leukemia cell differentiation protein Mcl-1 (Q07820 whole entry): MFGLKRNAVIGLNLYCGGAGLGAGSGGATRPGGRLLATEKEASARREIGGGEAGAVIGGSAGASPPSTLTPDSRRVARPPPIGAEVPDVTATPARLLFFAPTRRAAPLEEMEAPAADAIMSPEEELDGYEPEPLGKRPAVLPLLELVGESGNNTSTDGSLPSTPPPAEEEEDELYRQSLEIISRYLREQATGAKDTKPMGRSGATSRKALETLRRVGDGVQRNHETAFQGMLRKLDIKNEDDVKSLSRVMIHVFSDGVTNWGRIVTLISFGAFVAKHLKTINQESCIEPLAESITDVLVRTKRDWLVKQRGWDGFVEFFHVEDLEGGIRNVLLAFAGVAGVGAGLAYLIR
Data set [13] concerns the target T5, Cytochrome P450 1A2 (Homo sapiens, UniProt P05177).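 Also: PubChem cytochrome P450 panel assay, CYP1A2 panel member.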
T5 sequence (P05177 whole entry): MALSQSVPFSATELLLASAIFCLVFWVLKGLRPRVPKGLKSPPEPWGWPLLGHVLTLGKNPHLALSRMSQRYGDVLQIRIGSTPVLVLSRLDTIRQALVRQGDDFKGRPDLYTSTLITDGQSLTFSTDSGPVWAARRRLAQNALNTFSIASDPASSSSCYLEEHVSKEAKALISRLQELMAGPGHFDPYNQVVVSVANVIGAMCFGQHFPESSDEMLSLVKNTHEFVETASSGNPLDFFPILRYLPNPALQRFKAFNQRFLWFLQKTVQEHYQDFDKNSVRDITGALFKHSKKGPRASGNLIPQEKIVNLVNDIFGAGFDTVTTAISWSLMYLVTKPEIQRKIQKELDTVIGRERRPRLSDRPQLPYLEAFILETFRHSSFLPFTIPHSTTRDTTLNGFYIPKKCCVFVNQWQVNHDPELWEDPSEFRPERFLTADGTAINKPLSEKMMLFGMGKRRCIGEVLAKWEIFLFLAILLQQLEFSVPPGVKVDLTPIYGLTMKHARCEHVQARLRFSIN

In data set [14] the target is Cytochrome P450 2C9 (Homo sapiens, UniProt P11712).
Sequence of Cytochrome P450 2C9 (P11712 whole entry): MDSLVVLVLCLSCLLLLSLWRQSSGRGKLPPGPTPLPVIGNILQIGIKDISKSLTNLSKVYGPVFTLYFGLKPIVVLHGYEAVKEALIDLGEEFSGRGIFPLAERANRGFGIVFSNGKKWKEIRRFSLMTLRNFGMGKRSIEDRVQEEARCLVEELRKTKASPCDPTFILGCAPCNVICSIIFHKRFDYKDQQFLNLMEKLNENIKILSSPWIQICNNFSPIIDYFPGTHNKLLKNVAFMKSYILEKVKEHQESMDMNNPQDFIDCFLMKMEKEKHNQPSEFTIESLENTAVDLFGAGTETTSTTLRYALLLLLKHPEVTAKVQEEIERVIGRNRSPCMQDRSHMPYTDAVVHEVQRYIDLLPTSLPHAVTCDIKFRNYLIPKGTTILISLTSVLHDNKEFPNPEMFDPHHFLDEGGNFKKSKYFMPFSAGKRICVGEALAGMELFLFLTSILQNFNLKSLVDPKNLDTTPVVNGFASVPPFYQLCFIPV
Data set [15] addresses T6, Streptokinase A (Streptococcus pyogenes serotype M1, UniProt P10520).
T6 sequence (P10520 whole entry): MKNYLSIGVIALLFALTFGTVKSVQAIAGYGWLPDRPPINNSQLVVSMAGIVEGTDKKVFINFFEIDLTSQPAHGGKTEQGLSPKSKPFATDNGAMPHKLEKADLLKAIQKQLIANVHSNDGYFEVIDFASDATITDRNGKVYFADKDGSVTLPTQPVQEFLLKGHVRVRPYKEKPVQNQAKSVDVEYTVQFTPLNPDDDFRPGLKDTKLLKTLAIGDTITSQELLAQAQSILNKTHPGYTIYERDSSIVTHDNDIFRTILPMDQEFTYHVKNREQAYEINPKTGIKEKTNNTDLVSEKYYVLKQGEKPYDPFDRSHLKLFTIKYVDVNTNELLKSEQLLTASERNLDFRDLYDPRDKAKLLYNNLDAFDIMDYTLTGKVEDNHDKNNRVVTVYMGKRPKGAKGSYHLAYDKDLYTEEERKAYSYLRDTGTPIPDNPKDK
Briefly: S. pyogenes streptokinase expression inhibitors, potency, dose response, plasminogen activation absorbance, OD405 (AID 1914).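 Also: secreted streptokinase activity via plasminogen activation per viability signal from cell pellet.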 The data set is classed as functional, Streptococcus pyogenes M1 GAS.

The nature of data set [16]: THP-1 cell cytotoxicity, dose response, cytotoxicity control for non-replicating M. tuberculosis project (AID 489025). The data set is classed as functional.
Data set [17] relates to Streptococcus. As to the kind of experiment: Group A Streptococcus viability loss, dose response, counter-screen for streptokinase expression inhibitor project, luminescence, BacTiterGlo (AID 1915).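 Also: potency for reduction of bacterial viability or growth.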 The data set is classed as functional, organism-based.
In data set [18] the test system is Streptococcus sp. 'group A'. As to the kind of experiment: growth inhibition of control SK(-) GAS strain, dose response, counter-screen for streptokinase expression inhibitor project, luminescence, kanamycin, BacTiterGlo, confirmation (AID 1900). The format is functional, organism-based.

Active and inactive are the calls of the source. Bounds are passed on as bounds.

T2 sequence (Q9UBE0 whole entry): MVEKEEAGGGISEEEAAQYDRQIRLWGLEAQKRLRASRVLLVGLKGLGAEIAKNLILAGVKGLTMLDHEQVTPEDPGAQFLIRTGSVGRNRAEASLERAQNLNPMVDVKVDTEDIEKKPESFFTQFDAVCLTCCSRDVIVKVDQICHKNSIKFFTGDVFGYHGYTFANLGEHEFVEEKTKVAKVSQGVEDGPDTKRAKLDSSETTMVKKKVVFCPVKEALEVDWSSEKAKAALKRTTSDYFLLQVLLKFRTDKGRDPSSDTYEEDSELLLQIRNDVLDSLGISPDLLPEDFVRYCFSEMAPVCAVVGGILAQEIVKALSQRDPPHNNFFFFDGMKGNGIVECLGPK
T2 sequence (Q9UBT2 whole entry): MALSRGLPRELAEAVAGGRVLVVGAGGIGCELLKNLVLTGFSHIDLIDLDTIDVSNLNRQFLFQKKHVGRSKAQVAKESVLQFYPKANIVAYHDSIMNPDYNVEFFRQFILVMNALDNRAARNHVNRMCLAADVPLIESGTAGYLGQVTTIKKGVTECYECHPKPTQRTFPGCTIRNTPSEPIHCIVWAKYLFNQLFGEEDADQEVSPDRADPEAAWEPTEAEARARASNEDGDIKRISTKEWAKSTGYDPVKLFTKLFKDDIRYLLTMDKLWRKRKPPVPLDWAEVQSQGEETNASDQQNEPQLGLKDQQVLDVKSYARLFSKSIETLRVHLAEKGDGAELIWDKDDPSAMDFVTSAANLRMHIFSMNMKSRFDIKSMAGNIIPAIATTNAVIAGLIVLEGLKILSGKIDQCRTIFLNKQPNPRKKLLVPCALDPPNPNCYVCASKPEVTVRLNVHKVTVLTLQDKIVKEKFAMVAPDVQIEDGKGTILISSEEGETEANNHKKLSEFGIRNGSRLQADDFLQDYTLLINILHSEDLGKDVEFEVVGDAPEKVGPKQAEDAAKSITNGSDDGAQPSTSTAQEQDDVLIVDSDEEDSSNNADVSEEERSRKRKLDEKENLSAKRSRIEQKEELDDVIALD
Sequence of Alkaline phosphatase, placental type (P05187 whole entry): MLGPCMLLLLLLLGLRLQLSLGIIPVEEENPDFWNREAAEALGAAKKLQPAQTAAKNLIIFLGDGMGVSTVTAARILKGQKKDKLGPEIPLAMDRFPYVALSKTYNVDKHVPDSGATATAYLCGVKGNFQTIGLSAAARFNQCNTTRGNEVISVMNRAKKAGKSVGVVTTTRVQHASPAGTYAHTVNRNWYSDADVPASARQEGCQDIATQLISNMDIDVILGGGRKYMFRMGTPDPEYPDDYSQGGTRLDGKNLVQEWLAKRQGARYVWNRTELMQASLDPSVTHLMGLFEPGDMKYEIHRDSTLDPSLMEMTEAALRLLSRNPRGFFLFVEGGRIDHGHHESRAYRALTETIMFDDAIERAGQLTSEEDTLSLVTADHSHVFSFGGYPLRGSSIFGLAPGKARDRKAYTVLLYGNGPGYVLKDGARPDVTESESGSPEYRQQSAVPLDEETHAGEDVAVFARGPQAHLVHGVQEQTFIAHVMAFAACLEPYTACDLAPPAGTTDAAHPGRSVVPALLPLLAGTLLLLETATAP
Sequence of Cytochrome P450 2D6 (P10635 whole entry): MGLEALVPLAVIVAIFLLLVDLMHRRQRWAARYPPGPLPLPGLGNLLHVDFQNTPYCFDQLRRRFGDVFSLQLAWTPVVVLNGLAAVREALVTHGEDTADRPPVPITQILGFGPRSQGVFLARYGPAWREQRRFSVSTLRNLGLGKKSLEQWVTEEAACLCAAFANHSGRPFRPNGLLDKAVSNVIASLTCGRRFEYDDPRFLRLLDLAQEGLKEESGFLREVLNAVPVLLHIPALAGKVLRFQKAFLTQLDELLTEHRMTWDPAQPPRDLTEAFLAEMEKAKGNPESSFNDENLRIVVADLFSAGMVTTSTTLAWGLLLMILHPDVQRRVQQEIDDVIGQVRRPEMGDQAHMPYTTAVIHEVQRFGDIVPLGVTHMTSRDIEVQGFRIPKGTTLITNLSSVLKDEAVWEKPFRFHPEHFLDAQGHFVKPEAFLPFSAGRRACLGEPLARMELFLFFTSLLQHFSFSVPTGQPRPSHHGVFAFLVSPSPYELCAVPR
Sequence of Cytochrome P450 2C19 (P33261 whole entry): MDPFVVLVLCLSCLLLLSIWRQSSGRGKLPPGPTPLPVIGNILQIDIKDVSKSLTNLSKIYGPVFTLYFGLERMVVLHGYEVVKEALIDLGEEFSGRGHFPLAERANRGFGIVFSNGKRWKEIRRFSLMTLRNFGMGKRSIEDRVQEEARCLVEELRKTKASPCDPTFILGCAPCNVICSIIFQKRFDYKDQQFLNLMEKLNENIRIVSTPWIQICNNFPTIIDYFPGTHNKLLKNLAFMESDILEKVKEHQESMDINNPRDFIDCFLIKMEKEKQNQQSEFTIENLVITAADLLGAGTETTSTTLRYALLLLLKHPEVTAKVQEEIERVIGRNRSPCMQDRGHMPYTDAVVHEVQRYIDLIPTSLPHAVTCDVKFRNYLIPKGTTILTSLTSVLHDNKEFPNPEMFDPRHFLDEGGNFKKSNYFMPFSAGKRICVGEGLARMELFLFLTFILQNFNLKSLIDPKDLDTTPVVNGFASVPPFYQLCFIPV

Regarding `O=C(O)c1nn(-c2ccccc2)nc1-c1nn(-c2ccccc2)nc1C(=O)O`, the half-maximal activity concentration (AC50) result in [1] is “inconclusive”.

As to `C[C@@H](c1ccccc1)N1C(=O)[C@H]2[C@@H]3[C@H](O)C=CC(=O)[C@H]3CC[C@H]2C1=O`, the half-maximal activity concentration (AC50) result in [1] and in data set [2] was “inconclusive” in each case.

In the case of `COc1ccc(-c2nc3c4cnn(C)c4ncn3n2)cc1`, the IC50 in [3] is > 100 µM (not active); in [4] it was > 100 µM (inactive); in data set [5], > 100 µM (inactive).

`COc1ccc(C(=O)Nc2ccc(-c3nnn(CC(=O)N4CCN(C(=O)c5ccco5)CC4)n3)cc2)cc1`: the IC50 is 30 µM (active) in data set [6] and 13 µM (active) in data set [7].

Turning to `NC(=O)c1ccc(-n2nnnc2SCC(=O)c2ccc(O)c(O)c2)cc1`, the concentration for half-maximal inhibition (IC50) in [4] was 1.76 µM (active); in data set [5], 3.48 µM (active). Besides, the AC50 in data set [8] was > 20 µM (inactive).

As to `CCN(CC)c1ccc(NC(=O)CSc2nc(C3CC3)nc3ccccc23)cc1C`, the IC50 in [6] is 27 µM (active); in data set [7], 7.43 µM (active).

On to `COc1cc(NCCC(=O)c2cccs2)c(OC)cc1Cl`, for which the half-maximal inhibitory concentration (IC50) in data set [9] was 58.1 µM (active); in data set [10], 8.46 µM (active); in data set [12], 4.38 µM (not active). The half-maximal cytotoxic concentration (CC50) in data set [11] was > 20 µM (active).

Take `Cc1cc(C)nc(Nc2n[nH]c(-c3cccc4ccccc34)n2)n1`: the concentration at half-maximal activity (AC50) result in data set [1] is “inconclusive”; in [2] (read-out: AC50), 17.8 µM (inconclusive).

As for `COc1ccc(/C=N/C(CO)C(O)c2ccc([N+](=O)[O-])cc2)cc1` (stereo not given), the AC50 result in data set [1] is “inconclusive”; in [13], 20 µM (inconclusive); in data set [14], 2.51 µM (inconclusive).

As to `CCCCCC/C(=N/O)c1ccccn1`, the values for the EC50 in data set [15], in [17] and in [18] were > 150 µM (not active), 40 µM (active) and 7.92 µM (active), respectively. The figures for the CC50 in [16] and in data set [11] were 20.2 µM (active) and 15.2 µM (active), respectively. For the same compound, in [10], the half-maximal inhibitory concentration (IC50) is 6.74 µM (active).

`O=C(c1cc(-c2ccc(Cl)cc2Cl)n[nH]1)N1CCN(CCO)CC1`: the IC50 in data set [3] was > 100 µM (not active); in [4] it was > 100 µM (inactive).

The record behind these values is ChEMBL document CHEMBL1201862, “PubChem BioAssay data set” (2004).
